# Measurements as given in patent US10441582B2 (priority 2016, dated 2019).
# Tests used:
# [1] = test system: solid tumor of MKN-45 cells; assay: Solid tumor of MKN-45 cells in BALB/c nude mice, intratumoral administration; format: in vivo; settings: G5, 20 mg/kg intratumoral, FIG. 9
# Method: After about 2 weeks, the ascites was collected and centrifuged at 2000 rpm, and the precipitate was washed twice and then stained with 0.4% […] blue, thereby obtaining 5×10^6 cells/100 μL.
# In the first administration, a suspension volume of 50 μL/head was used regardless of body weight.
# The medium dose used was a 2-fold dilution of the prepared injectable suspension, and the low dose used was a 4-fold dilution of the prepared injectable suspension.
# The injectable suspension was dissolved by heating to a temperature of 42 to 45° C. on a water bath. Next, 20 μL of the solution was administered to the apex of the tumor by means of a 0.3 mL insulin syringe, and 10 μL of the solution was administered to each of three points of the bottom side of the tumor. Accordingly, a total of 50 μL of the solution was administered to the tumor.
# On the final day of the test, the animals were biopsied and visually observed, and the mean weight of the tumors was measured.
# MKN-45 cells = assay: MTT assay, cytotoxicity against MKN-45 cells; settings: Homo sapiens, MKN-45, 24 h, read-out: IC50 (drug concentration that resulted in 50% of cell viability)
# Method: The MKN-45 cell line was subcultured with RPMI1640 medium (supplemented with L-glutamine and 10% FBS) in a 5% CO2 incubator at 37° C. for 48 hours, and was then used in the test.
# The cell line prepared in (2) above was added to each well.
# Then, the cells were cultured in a 5% CO2 incubator at 37° C. for 24 hours, and 50 μL of MTT reagent was added thereto at a concentration of 2 mg/mL. Then, the cells were incubated in an incubator at 37° C. for 4 hours.
# The cell culture was centrifuged to remove the supernatant, and 200 μL of DMSO was added to each well to dissolve the MTT-stained precipitate, after which the OD540 value at a wavelength of 540 nm was measured with an ELISA reader.
# [2] = G5, 20 mg/kg i.v., FIG. 2
# Text: Fifty 5-week-old BALB/c nude mice (produced by Central Lab Animal Inc., Korea) were purchased and acclimated for 1 week before use in the test.
# The data are expressed as mean±S.D. The results were statistically analyzed by ONE-WAY ANOVA and Student's t-test methods.
compound,measurement,setting,value
CC(=O)O[C@H]1C(=O)[C@@]2(C)[C@H]([C@H](OC(=O)c3ccccc3)[C@]3(O)C[C@H](OC(=O)[C@H](O)[C@@H](NC(=O)c4ccccc4)c4ccccc4)C(C)=C1C3(C)C)[C@]1(OC(C)=O)CO[C@@H]1C[C@@H]2O [Paclitaxel],State of solid tumor (photographs),[1]; 2 weeks after administration,proliferated
same,Proliferation of tumor cells,[1],≥ 5 fold
same,IC50,MKN-45 cells,0.1 µg/mL
same,Decrease in body weight,[2],significant decrease in body weight
